Here are results for 45 compounds from patent US8664257B2, “Oxygen-substituted 3-heteroaroylamino-propionic acid derivatives and their use as pharmaceuticals” (Sanofi, priority 2010, dated 2014).

The target of the first assay is T1, Recombinant human cathepsin A (Homo sapiens, UniProt P10619).
T1 construct: Recombinant human cathepsin A (residues 29-480, with a C-terminal 10-His tag); 10-His (C); purchased R&D Systems 1049-SE
T1 sequence (P10619 29-312 limits assumed): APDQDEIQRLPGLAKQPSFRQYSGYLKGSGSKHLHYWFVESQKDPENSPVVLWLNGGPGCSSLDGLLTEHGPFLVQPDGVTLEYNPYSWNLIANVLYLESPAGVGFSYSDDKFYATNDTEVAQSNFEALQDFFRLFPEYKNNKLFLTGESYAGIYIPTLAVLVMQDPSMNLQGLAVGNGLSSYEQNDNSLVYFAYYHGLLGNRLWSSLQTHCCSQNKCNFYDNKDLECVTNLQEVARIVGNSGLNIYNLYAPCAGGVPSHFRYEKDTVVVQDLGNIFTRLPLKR
T1 sequence (P10619 327-480 limits assumed): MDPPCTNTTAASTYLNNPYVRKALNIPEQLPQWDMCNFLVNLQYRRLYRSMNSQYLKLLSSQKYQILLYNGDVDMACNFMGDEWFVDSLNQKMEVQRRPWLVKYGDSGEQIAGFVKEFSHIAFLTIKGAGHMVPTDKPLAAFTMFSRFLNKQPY
Put plainly: Cathepsin A inhibitory activity. The class given is biochemical. The note with it: number printed in place of a class symbol; unit from footnote (2); read-out: Activity (2): Cathepsin A inhibitory activity, IC50 printed as a numeric bound. In outline:
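Read-out was microfluidic separation of cleaved vs. uncleaved Bodipy FL-bradykinin (2 μM), giving turnover, % inhibition and IC50. Compound and 833 ng/ml enzyme met for 15 min RT in pH 5.5 MES/DTT before substrate (15 min RT). The 29-480 His-tagged human enzyme was first activated by cathepsin L, then E-64 (10 μM).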
For the compound `CC(C)[C@@](C)(O)COc1cc(C(=O)N[C@@H](CC(=O)O)c2ccccc2Cl)nn1-c1ccccc1F` [Example 861, (S)-3-(2-Chloro-phenyl)-3-{[1-(2-fluoro-phenyl)-5-((R)-2-hydroxy-2,3-dimethyl-butoxy)-1H-pyrazole-3-carbonyl]-amino}-propionic acid], the IC50 (commonly the concentration at which inhibition is half-maximal) is over 30000 nM.

Staying with this assay, now noted: pharmacological test "Cathepsin A inhibitory activity"; IC50 given as class A/B/C; read-out: Activity (2): Cathepsin A inhibitory activity, IC50 class.
With `COc1ccccc1[C@@H](NC(=O)c1cc(O)n(-c2ccc(F)cc2F)n1)[C@@H](O)C(=O)O` [Example 188], the IC50 lay within 1000 to 30000 nM.

On to `O=C(O)C[C@H](NC(=O)c1cc(O)n(-c2ccccc2F)n1)c1cccc(C(F)(F)F)c1` [Example 241], for which the IC50 lay in the range of 100 to 1000 nM.

For `O=C(O)CC(NC(=O)c1cc(O)n(-c2ccc(F)cc2F)n1)c1ccc(OC(F)(F)F)cc1` (stereo not shown) [Example 187], the IC50 lay in the range of 100 to 1000 nM.

On to `O=C(O)C[C@H](NC(=O)c1cc(O)n(-c2ccccc2Cl)n1)c1ccccc1Br` [Example 204], for which the IC50 lay within 100 to 1000 nM.

For the compound `COc1cccc([C@H](CC(=O)O)NC(=O)c2cc(O)n(-c3ccccc3F)n2)c1` [Example 237], the IC50 is 100 to 1000 nM.

For `COc1cccc([C@H](CC(=O)O)NC(=O)c2cc(O)n(-c3ccccc3Cl)n2)c1` [Example 213], the IC50 was in the range of 100 to 1000 nM.

Consider `O=C(O)CC(NC(=O)c1cc(O)n(-c2ccccc2Cl)n1)c1cccc(Cl)c1F` (stereo not shown) [Example 222], for which the IC50 fell in the range of 100 to 1000 nM.

With `O=C(O)CC(NC(=O)c1cc(O)n(-c2ccccc2Cl)n1)c1ccc(-c2ccccc2)cc1` (stereo not shown) [Example 226], the IC50 lay in the range of 100 to 1000 nM.

In the case of `N#Cc1cccc([C@H](CC(=O)O)NC(=O)c2cc(O)n(-c3ccccc3Cl)n2)c1` [Example 205], the IC50 was in the range of 100 to 1000 nM.

On to `Cc1cccc([C@H](CC(=O)O)NC(=O)c2cc(O)n(-c3ccccc3Cl)n2)c1` [Example 217], for which the IC50 was in the range of 100 to 1000 nM.

On to `O=C(O)CC(NC(=O)c1cc(O)n(-c2ccccc2F)n1)c1cccc(OCc2ccccc2)c1` (stereo not shown) [Example 229], for which the IC50 was 1000 to 30000 nM.

The assay is the same for the next values; noted with them: read-out: Activity (2): Cathepsin A inhibitory activity (IC50 class).
On to `Cc1ccccc1[C@H](CC(=O)O)NC(=O)c1cc(OCc2cccc(C(F)(F)F)c2)n(-c2ccccc2F)n1` [Example 624], for which the IC50 is 100 to 1000 nM.

As to `O=C(O)CC(NC(=O)c1cc(O)n(-c2ccccc2Cl)n1)c1ccc(-n2cncn2)cc1` (stereo not shown) [Example 557, 3-{[1-(2-Chloro-phenyl)-5-hydroxy-1H-pyrazole-3-carbonyl]-amino}-3-(4-[1,2,4]triazol-1-yl-phenyl)-propionic acid], the IC50 is 100 to 1000 nM.

`CCOc1cc(C(=O)N[C@@H](CC(=O)O)c2ccccc2)nn1-c1ccccc1F` [Example 707]: the IC50 lay in the range of 100 to 1000 nM.

`Cc1ccccc1[C@H](CC(=O)O)NC(=O)c1cc(OCC(C)(C)O)n(-c2ccccc2F)n1` [Example 752]: the IC50 is under 100 nM.

On to `COc1c(Cl)c(C(=O)N[C@@H](CC(=O)O)c2ccccc2C)nn1-c1ccccc1F` [Example 593], for which the IC50 fell in the range of 100 to 1000 nM.

Consider `Cc1ccccc1[C@H](CC(=O)O)NC(=O)c1cc(OCC2CCOC2)n(-c2ccccc2F)n1` (stereo partly shown) [Example 650], for which the IC50 is under 100 nM.

As to `Cc1ccccc1[C@H](CC(=O)O)NC(=O)c1cc(OC[C@H](O)C2CC2)n(-c2ccccc2F)n1` (single isomer, unassigned) [Example 760], the IC50 was under 100 nM.

Turning to `CCOc1cc(C(=O)N[C@@H](CC(=O)O)c2ccccc2C)nn1-c1ccccc1` [Example 621], the IC50 was under 100 nM.

As to `Cc1ccc(C(CC(=O)O)NC(=O)c2cc(O)n(-c3ccccc3F)n2)c(F)c1` (stereo not shown) [Example 555, 3-(2-Fluoro-4-methyl-phenyl)-3-{[1-(2-fluoro-phenyl)-5-hydroxy-1H-pyrazole-3-carbonyl]-amino}-propionic acid], the half-maximal inhibitory concentration (IC50) was 100 to 1000 nM.

On to `Cc1ccc([C@H](CC(=O)O)NC(=O)c2cc(OCC3CC3)n(-c3ccccc3F)n2)cc1` [Example 695], for which the IC50 is under 100 nM.

Take `COc1cc(C(=O)N[C@@H](CC(=O)O)c2ccc(Cl)cc2Cl)nn1-c1ccccc1F` [Example 673]: the IC50 is under 100 nM.

Still in this assay, the particulars now being: read-out: Activity (2): Cathepsin A inhibitory activity, IC50 class.
With `O=C(O)C[C@H](NC(=O)c1cc(O)n(-c2ccc(F)cc2)n1)c1ccccc1Br` [Example 339], the IC50 lay within 100 to 1000 nM.

Regarding `COc1ccc(C(CC(=O)O)NC(=O)c2cc(O)n(-c3cccc(F)c3)n2)c(Cl)c1` (stereo not shown) [Example 310], the IC50 lay within 100 to 1000 nM.

`CC(C)C(C)(O)COc1cc(C(=O)N[C@H](CC(=O)O)Cc2ccc(C#N)cc2)nn1-c1ccccc1F` (stereo partly drawn) [Example 836, (S)-4-(4-Cyano-phenyl)-3-{[1-(2-fluoro-phenyl)-5-(2-hydroxy-2,3-dimethyl-butoxy)-1H-pyrazole-3-carbonyl]-amino}-butyric acid]: the IC50 lay within 1000 to 30000 nM.

As to `O=C(O)CC(NC(=O)c1cc(O)n(-c2ccc(F)cc2)n1)c1ccccc1F` (stereo not shown) [Example 343], the IC50 lay within 1000 to 30000 nM.

Take `COc1ccc([C@H](CC(=O)O)NC(=O)c2cc(O)n(-c3ccccc3F)n2)cn1` [Example 136]: the IC50 was 100 to 1000 nM.

For the compound `Cc1ccc([C@H](CC(=O)O)NC(=O)c2cc(OC[C@](C)(O)C(C)C)n(-c3ccccc3F)n2)cc1` [Example 860, (S)-3-{[1-(2-Fluoro-phenyl)-5-((R)-2-hydroxy-2,3-dimethyl-butoxy)-1H-pyrazole-3-carbonyl]-amino}-3-p-tolyl-propionic acid], the IC50 was under 100 nM.

For `O=C(O)C[C@H](NC(=O)c1cc(O)n(-c2ccc(F)cc2)n1)c1ccc(C(F)(F)F)cc1` [Example 351], the IC50 was in the range of 1000 to 30000 nM.

Regarding `COc1ccc(Cl)cc1C(CC(=O)O)NC(=O)c1cc(O)n(-c2ccc(Cl)cc2)n1` (stereo not shown) [Example 275], the IC50 is 1000 to 30000 nM.

As for `Cc1cc(F)ccc1C(CC(=O)O)NC(=O)c1cc(O)n(-c2ccc(Cl)cc2)n1` (stereo not shown) [Example 292], the half-inhibitory concentration (IC50) lay in the range of 100 to 1000 nM.

Take `Cc1ccc(C)c(-n2nc(C(=O)NC(CCc3ccccc3)CC(=O)O)cc2O)c1` (stereo not shown) [Example 34]: the IC50 was 1000 to 30000 nM.

Take `O=C(O)CC(NC(=O)c1cc(O)n(-c2cccc(F)c2)n1)c1ccc(Oc2ccccc2)cc1` (stereo not shown) [Example 330]: the IC50 lay within 100 to 1000 nM.

For the compound `O=C(O)C[C@H](NC(=O)c1cc(O)n(-c2ccccc2F)n1)c1cccc(F)c1` [Example 400], the IC50 was in the range of 100 to 1000 nM.

As to `CC(C)[C@](C)(O)COc1cc(C(=O)N[C@H](CC(=O)O)Cc2ccccc2)nn1-c1ccccc1F` [Example 837, (S)-3-{[1-(2-Fluoro-phenyl)-5-((S)-2-hydroxy-2,3-dimethyl-butoxy)-1H-pyrazole-3-carbonyl]-amino}-4-phenyl-butyric acid], the IC50 was 1000 to 30000 nM.

Take `CCc1ccc(C(CC(=O)O)NC(=O)c2cc(O)n(-c3ccc(F)cc3)n2)cc1` (stereo not shown) [Example 363]: the IC50 lay in the range of 100 to 1000 nM.

Consider `O=C(O)CC(NC(=O)c1cc(O)n(-c2cccc(F)c2)n1)c1cccc(Cl)c1F` (stereo not shown) [Example 322], for which the IC50 was 100 to 1000 nM.

The assay is the same for the next values; noted with them: recombinant human cathepsin A 833 ng/ml, Bodipy FL-labeled bradykinin 2 μM, pH 5.5; read-out: CATH-A IC50.
As for `O=C(O)CC(NC(=O)c1cc(O)n(-c2ccccc2)n1)c1cccc2c1OC(F)(F)O2` (stereo not shown) [Example 496, 3-(2,2-Difluoro-benzo[1,3]dioxol-4-yl)-3-[(5-hydroxy-1-phenyl-1H-pyrazole-3-carbonyl)-amino]-propionic acid], the IC50 was 167 nM.

As for `O=C(O)CC(NC(=O)c1cc(O)n(-c2ccccc2Cl)n1)c1ccc(-n2cncn2)cc1` (stereo not shown) [Example 557, 3-{[1-(2-Chloro-phenyl)-5-hydroxy-1H-pyrazole-3-carbonyl]-amino}-3-(4-[1,2,4]triazol-1-yl-phenyl)-propionic acid], the IC50 was determined as 839 nM.

As to `O=C(O)CC(NC(=O)c1cc(O)n(-c2ccc(Cl)cc2)n1)c1ccc(-c2ccccn2)cc1` (stereo not shown) [Example 515, 3-{[1-(4-Chloro-phenyl)-5-hydroxy-1H-pyrazole-3-carbonyl]-amino}-3-(4-pyridin-2-yl-phenyl)-propionic acid], the IC50 was found to be 238 nM.

In the case of `Cc1ccc([C@H](CC(=O)O)NC(=O)c2cc(OC[C@](C)(O)C(C)C)n(-c3ccccc3F)n2)cc1` [Example 860, (S)-3-{[1-(2-Fluoro-phenyl)-5-((R)-2-hydroxy-2,3-dimethyl-butoxy)-1H-pyrazole-3-carbonyl]-amino}-3-p-tolyl-propionic acid], the IC50 was determined as 76.1 nM.

On to `Cc1ccc(C(CC(=O)O)NC(=O)c2cc(O)n(-c3ccccc3F)n2)c(F)c1` (stereo not shown) [Example 555, 3-(2-Fluoro-4-methyl-phenyl)-3-{[1-(2-fluoro-phenyl)-5-hydroxy-1H-pyrazole-3-carbonyl]-amino}-propionic acid], for which the IC50 amounted to 239 nM.

With `COc1ccc(F)cc1C(CC(=O)O)NC(=O)c1cc(O)n(-c2ccccc2Cl)n1` (stereo not shown) [Example 504, 3-{[1-(2-Chloro-phenyl)-5-hydroxy-1H-pyrazole-3-carbonyl]-amino}-3-(5-fluoro-2-methoxy-phenyl)-propionic acid], the IC50 turned out to be 123 nM.

Take `O=C(O)CC(NC(=O)c1cc(O)n(-c2cccc(Cl)c2)n1)c1ccccc1SC(F)(F)F` (stereo not shown) [Example 467, 3-{[1-(3-Chloro-phenyl)-5-hydroxy-1H-pyrazole-3-carbonyl]-amino}-3-(2-trifluoromethylsulfanyl-phenyl)-propionic acid]: the IC50 turned out to be 2250 nM.

The assay is the same for the next values; noted with them: recombinant human cathepsin A; read-out: Activity (2): Cathepsin A inhibitory activity, IC50 class.
With `O=C(O)CC(NC(=O)c1cc(O)n(-c2ccccc2)n1)c1cccc2c1OC(F)(F)O2` (stereo not shown) [Example 496, 3-(2,2-Difluoro-benzo[1,3]dioxol-4-yl)-3-[(5-hydroxy-1-phenyl-1H-pyrazole-3-carbonyl)-amino]-propionic acid], the IC50 fell in the range of 100 to 1000 nM.

Take `COc1cc(C(=O)N[C@@H](CC(=O)NCc2ccncc2)c2ccccc2C)nn1-c1ccccc1F` [Example 916, 1-(2-Fluoro-phenyl)-5-methoxy-1H-pyrazole-3-carboxylic acid {(S)-2-[(pyridin-4-ylmethyl)-carbamoyl]-1-o-tolyl-ethyl}-amide]: the IC50 was 1000 to 30000 nM.

`O=C(O)CC(NC(=O)c1cc(O)n(-c2ccc(Cl)cc2)n1)c1ccc(-c2ccccn2)cc1` (stereo not shown) [Example 515, 3-{[1-(4-Chloro-phenyl)-5-hydroxy-1H-pyrazole-3-carbonyl]-amino}-3-(4-pyridin-2-yl-phenyl)-propionic acid]: the IC50 fell in the range of 100 to 1000 nM.

As to `CN(C)c1ccc(C(CC(=O)O)NC(=O)c2cc(O)n(-c3ccc(F)cc3)n2)c(Cl)c1` (stereo not shown) [Example 490], the IC50 lay in the range of 1000 to 30000 nM.

As for `COc1ccc(F)cc1C(CC(=O)O)NC(=O)c1cc(O)n(-c2ccccc2Cl)n1` (stereo not shown) [Example 504, 3-{[1-(2-Chloro-phenyl)-5-hydroxy-1H-pyrazole-3-carbonyl]-amino}-3-(5-fluoro-2-methoxy-phenyl)-propionic acid], the IC50 lay in the range of 100 to 1000 nM.

In the case of `O=C(O)CC(NC(=O)c1cc(O)n(-c2ccnc(Cl)c2)n1)c1ccc(-c2ccccc2)cc1` (stereo not shown) [Example 439], the IC50 fell in the range of 100 to 1000 nM.

In the case of `O=C(O)CC(NC(=O)c1cc(O)n(-c2cccc(Cl)c2)n1)c1ccccc1SC(F)(F)F` (stereo not shown) [Example 467, 3-{[1-(3-Chloro-phenyl)-5-hydroxy-1H-pyrazole-3-carbonyl]-amino}-3-(2-trifluoromethylsulfanyl-phenyl)-propionic acid], the IC50 was 1000 to 30000 nM.
